From patent US11905294B2, “Imidazo[1,5-a]pyrazine derivatives as PI3Kδ inhibitors” (BEIGENE, LTD., priority 2017, dated 2024)

What was measured:
Type in all cases: biochemical
PI3K (p110δ/p85α) = PI3K (p110δ/p85α) (Homo sapiens, UniProt O00329); test: PI3Kδ assay (ADP-Glo Kinase Assay); conditions: recombinant enzyme; IC50 (nM) or max inhibition (%) at 0.5 μM
Experimental: Compounds disclosed herein were tested for inhibition of PI3Kδ kinase activity using commercial ADP-Glo™ Kinase Assay (Promega Corporation) and following the manufacture's instruction. Briefly, recombinant PI3K (p110δ/p85α) enzyme, lipid kinase substrate and a serial dilution of compounds disclosed herein were incubated for 0.5 hr at room temperature. ATP was added to initiate the kinase reaction. After incubation for 1 hr at room temperature, ADP-Glo™ reagent was added to terminate the kinase reaction and deplete the remaining ATP. After incubation for 1 hr at room temperature, kinase detection reagent was added to simultaneously convert ADP to ATP and allow the newly synthesized ATP to be measured using a luciferase/luciferin reaction. After incubation for 0.5 hr at room temperature, the luminescence generated was measured on a PHERAstar FS plate reader (BMG LABTECH). The residual enzyme activity in presence of increasing concentrations of compounds was calculated based on the luminescence. The IC50 for each compound was derived from fitting the data to the four-parameter logistic equation by Graphpad Prism software.

PI3K (p110α/p85α) = PI3K (p110α/p85α) (Homo sapiens, UniProt P42336); test: PI3Kα assay (ADP-Glo Kinase Assay); conditions: recombinant enzyme; IC50 (nM) or max inhibition (%) at 0.5 μM
PI3K (p110β/p85α) = PI3K (p110β/p85α) (Homo sapiens, UniProt P42338); test: PI3Kβ assay (ADP-Glo Kinase Assay); conditions: read-out: Enzyme activity IC50 PI3Kβ
PI3K (p110γ) = PI3K (p110γ) (Homo sapiens, UniProt P48736); test: PI3Kγ assay (ADP-Glo Kinase Assay); conditions: recombinant enzyme; IC50 (nM) or max inhibition (%) at 0.5 μM
PI3K (p110γ), sequence (P48736 whole entry): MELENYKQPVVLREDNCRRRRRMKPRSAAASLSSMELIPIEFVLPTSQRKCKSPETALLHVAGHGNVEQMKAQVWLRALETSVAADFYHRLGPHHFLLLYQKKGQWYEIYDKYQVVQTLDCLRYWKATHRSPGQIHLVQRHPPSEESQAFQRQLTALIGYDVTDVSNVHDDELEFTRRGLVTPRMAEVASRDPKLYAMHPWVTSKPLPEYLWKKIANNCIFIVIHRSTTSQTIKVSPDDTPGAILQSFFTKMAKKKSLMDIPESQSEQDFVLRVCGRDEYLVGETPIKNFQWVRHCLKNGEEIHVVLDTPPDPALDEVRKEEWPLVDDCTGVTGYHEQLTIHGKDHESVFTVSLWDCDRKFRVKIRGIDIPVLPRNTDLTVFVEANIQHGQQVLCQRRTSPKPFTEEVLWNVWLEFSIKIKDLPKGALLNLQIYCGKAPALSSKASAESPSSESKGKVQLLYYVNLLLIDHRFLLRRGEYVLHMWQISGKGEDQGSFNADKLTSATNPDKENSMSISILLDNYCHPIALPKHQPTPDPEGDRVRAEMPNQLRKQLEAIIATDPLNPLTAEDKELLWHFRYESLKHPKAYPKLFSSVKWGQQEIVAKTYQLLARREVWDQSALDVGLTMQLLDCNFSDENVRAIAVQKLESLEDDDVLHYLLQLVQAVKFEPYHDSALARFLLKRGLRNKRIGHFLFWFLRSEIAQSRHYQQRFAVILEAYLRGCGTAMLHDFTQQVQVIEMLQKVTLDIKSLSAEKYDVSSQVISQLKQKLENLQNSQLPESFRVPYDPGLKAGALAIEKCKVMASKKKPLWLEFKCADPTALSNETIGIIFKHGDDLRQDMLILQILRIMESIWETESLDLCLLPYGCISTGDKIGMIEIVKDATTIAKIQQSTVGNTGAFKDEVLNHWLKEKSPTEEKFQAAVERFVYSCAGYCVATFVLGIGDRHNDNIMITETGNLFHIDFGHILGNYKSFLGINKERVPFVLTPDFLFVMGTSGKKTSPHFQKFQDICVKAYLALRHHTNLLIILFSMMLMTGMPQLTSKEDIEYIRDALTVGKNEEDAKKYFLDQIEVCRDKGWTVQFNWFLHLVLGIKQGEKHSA

PI3K (p110δ/p85α), sequence (O00329 whole entry): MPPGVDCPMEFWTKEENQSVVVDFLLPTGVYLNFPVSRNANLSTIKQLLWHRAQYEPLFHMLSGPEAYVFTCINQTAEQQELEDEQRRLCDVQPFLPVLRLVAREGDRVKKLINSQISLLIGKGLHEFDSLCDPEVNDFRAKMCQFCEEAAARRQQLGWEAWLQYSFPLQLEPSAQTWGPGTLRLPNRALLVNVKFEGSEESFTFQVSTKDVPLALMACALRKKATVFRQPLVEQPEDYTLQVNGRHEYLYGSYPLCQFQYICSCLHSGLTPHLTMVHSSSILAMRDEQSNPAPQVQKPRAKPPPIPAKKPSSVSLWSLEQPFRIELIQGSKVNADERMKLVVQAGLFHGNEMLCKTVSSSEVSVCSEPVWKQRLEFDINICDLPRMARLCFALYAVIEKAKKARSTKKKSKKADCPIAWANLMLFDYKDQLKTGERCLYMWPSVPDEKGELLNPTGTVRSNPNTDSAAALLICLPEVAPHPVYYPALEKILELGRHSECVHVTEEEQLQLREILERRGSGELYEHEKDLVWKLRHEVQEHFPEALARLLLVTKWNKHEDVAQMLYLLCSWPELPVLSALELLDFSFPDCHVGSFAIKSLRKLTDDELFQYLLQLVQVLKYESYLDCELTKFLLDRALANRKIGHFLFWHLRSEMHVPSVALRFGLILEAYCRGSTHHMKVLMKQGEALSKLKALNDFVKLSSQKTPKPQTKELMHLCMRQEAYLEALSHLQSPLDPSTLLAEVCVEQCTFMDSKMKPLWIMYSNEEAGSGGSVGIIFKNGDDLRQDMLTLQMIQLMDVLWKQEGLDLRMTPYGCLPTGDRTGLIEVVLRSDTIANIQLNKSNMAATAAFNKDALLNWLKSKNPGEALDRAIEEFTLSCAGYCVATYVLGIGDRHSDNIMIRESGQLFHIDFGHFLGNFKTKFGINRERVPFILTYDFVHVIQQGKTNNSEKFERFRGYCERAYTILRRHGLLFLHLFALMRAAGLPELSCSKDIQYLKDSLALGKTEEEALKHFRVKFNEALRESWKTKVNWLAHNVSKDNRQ
PI3K (p110δ/p85α), sequence (P27986 whole entry partner): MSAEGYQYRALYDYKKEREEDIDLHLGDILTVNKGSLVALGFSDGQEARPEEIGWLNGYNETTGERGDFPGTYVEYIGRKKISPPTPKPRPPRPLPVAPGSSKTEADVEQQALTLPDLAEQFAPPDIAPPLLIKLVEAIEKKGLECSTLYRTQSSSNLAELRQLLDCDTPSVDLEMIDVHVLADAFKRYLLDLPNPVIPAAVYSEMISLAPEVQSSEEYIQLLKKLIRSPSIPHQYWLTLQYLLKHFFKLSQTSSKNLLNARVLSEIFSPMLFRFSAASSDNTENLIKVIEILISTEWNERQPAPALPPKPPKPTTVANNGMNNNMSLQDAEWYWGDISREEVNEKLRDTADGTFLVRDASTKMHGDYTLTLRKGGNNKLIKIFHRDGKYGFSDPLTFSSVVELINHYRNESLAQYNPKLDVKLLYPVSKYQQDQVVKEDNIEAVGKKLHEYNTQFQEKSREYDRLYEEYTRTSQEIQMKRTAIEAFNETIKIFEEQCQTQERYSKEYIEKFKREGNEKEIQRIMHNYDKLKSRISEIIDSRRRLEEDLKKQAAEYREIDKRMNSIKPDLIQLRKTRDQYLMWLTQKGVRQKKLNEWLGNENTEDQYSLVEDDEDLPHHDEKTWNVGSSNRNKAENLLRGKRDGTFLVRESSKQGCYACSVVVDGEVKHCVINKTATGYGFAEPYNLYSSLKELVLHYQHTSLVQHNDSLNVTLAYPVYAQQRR
PI3K (p110β/p85α), sequence (P42338 whole entry): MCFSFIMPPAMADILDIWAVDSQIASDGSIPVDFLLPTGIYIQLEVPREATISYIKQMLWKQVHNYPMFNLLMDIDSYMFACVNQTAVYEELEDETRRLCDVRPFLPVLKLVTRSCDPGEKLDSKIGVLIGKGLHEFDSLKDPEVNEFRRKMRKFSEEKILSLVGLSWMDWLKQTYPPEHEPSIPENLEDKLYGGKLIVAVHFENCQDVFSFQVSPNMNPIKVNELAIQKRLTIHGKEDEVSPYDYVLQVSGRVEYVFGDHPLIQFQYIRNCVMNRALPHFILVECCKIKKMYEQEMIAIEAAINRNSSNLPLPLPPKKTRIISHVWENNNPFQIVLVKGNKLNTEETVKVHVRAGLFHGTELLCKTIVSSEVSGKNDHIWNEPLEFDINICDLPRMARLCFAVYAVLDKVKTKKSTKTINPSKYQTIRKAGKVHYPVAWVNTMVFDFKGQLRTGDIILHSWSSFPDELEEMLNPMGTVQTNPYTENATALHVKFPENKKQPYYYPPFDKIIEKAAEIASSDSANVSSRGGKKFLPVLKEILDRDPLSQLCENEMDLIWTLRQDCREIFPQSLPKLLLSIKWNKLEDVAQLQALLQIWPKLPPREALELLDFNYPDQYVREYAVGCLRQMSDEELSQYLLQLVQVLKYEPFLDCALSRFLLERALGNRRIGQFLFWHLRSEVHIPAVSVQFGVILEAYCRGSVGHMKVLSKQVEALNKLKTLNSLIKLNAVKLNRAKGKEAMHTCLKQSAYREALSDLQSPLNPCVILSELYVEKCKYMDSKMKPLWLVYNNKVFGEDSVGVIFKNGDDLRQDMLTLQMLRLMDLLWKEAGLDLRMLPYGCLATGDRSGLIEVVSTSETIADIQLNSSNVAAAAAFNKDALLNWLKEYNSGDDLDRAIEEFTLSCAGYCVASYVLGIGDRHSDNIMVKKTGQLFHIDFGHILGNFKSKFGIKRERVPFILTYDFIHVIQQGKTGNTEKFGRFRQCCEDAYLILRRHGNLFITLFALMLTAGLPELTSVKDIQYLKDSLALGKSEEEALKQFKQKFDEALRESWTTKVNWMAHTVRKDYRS
PI3K (p110β/p85α), sequence (P27986 whole entry partner): as the sequence (P27986 whole entry partner) above
PI3K (p110α/p85α), sequence (P42336 whole entry): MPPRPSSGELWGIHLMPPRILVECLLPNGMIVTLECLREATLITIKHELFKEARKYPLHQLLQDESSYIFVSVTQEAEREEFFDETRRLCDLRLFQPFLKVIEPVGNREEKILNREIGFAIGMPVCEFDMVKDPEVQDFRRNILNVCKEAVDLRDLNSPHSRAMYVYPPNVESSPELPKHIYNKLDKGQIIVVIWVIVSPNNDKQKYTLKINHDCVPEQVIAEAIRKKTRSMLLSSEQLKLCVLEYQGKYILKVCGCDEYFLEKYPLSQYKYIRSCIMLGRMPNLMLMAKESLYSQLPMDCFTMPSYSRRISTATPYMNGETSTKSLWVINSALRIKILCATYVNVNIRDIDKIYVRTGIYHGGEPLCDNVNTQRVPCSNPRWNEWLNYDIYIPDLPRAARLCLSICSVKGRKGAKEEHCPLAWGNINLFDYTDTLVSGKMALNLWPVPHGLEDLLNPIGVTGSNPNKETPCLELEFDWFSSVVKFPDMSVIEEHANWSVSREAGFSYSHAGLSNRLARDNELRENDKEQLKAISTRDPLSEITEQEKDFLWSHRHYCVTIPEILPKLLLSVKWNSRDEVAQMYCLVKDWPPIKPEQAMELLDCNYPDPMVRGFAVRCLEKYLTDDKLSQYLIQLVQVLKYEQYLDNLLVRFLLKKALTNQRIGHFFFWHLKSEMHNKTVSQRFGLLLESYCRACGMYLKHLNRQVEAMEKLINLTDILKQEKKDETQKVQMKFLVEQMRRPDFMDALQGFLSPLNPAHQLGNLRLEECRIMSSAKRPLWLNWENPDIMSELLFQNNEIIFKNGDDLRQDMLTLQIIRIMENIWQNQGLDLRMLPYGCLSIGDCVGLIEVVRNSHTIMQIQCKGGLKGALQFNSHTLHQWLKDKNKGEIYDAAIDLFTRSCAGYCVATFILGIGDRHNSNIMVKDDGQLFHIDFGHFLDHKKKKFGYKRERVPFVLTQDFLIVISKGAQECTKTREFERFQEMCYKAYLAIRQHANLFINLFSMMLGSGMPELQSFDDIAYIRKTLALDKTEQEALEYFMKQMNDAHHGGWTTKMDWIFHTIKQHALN
PI3K (p110α/p85α), sequence (P27986 whole entry partner): as the sequence (P27986 whole entry partner) above

Structure (SMILES) | IC50 (PI3K (p110δ/p85α)) | IC50 (PI3K (p110α/p85α)) | IC50 (PI3K (p110β/p85α)) | IC50 (PI3K (p110γ))
Cc1nc([C@@H](C)c2cc(Cl)c(F)c(C(=O)NC[C@@H]3CCOC3)c2OC(C)C)n2ccnc(N)c12 [Compound 35, 3-((S)-1-(8-amino-1-methylimidazo[1,5-a]pyrazin-3-yl)ethyl)-5-chloro-6-fluoro-2-isopropoxy-N-4(((S)-tetrahydrofuran-3-yl)methyl)benzamide] | 1.3 nM | 46000 nM | 19 µM | 6000 nM
COc1ccc([C@@H](C)NC(=O)c2c(F)c(Cl)cc([C@H](C)c3nc(C)c4c(N)nccn34)c2OC(C)C)cc1 [Compound 36, 3-((S)-1-(8-amino-1-methylimidazo[1,5-a]pyrazin-3-yl)ethyl)-5-chloro-6-fluoro-2-isopropoxy-N-((R)-1-(4-methoxyphenyl)ethyl)benzamide] | 2 nM | 9500 nM | 13 µM | 460 nM
Cc1nc([C@@H](C)c2cc(Cl)c(F)c(C(=O)N[C@H]3CCC[C@@H]3O)c2OC(C)C)n2ccnc(N)c12 [Compound 37, 3-((S)-1-(8-amino-1-methylimidazo[1,5-a]pyrazin-3-yl)ethyl)-5-chloro-6-fluoro-2-isopropoxy-N-((1S,2S)-2-hydroxycyclopentyl)benzamide] | 0.56 nM | 11000 nM | 11 µM | 2500 nM
Cc1nc([C@@H](C)c2cc(Cl)c(F)c(C(=O)N[C@]3(C)C[C@H](O)C3)c2OC(C)C)n2ccnc(N)c12 [Compound 38, 3-((S)-1-(8-amino-1-methylimidazo[1,5-a]pyrazin-3-yl)ethyl)-5-chloro-6-fluoro-2-isopropoxy-N-((1S,3R)-3-hydroxy-1-methylcyclobutyl)benzamide] | 1.4 nM | 6100 nM | 25 µM | 3200 nM
Cc1nc([C@@H](C)c2cc(Cl)c(F)c(C(=O)N[C@]3(C)C[C@@H](O)C3)c2OC(C)C)n2ccnc(N)c12 [Compound 39, 3-((S)-1-(8-amino-1-methylimidazo[1,5-a]pyrazin-3-yl)ethyl)-5-chloro-6-fluoro-N-((1r,3S)-3-hydroxy-1-methylcyclobutyl)-2-isopropoxybenzamide] | 0.9 nM | 10000 nM | 2.3 µM | 28000 nM
CCCNC(=O)c1c(F)c(Cl)cc([C@H](C)c2nc(C)c3c(N)nccn23)c1OC(C)C [Compound 41, (S)-3-(1-(8-amino-1-methylimidazo[1,5-a]pyrazin-3-yl)ethyl)-5-chloro-6-fluoro-2-isopropoxy-N-propylbenzamide] | 0.99 nM | 20000 nM | 4.9 µM | 5500 nM
Cc1nc([C@@H](C)c2cc(Cl)c(F)c(C(=O)NCC3CC3)c2OC(C)C)n2ccnc(N)c12 [Compound 42, (S)-3-(1-(8-amino-1-methylimidazo[1,5-a]pyrazin-3-yl)ethyl)-5-chloro-N-(cyclopropylmethyl)-6-fluoro-2-isopropoxybenzamide] | 1.2 nM | 36000 nM | 21 µM | 4800 nM
Cc1nc([C@@H](C)c2cc(Cl)c(F)c(C(=O)N3C[C@H](C)O[C@@H](C)C3)c2OC(C)C)n2ccnc(N)c12 [Compound 43, (3-((S)-1-(8-amino-1-methylimidazo[1,5-a]pyrazin-3-yl)ethyl)-5-chloro-6-fluoro-2-isopropoxyphenyl)((2S,6S)-2,6-dimethylmorpholino)methanone] | 2.2 nM | 21000 nM | > 50 µM | 3400 nM
Cc1nc([C@@H](C)c2cc(Cl)c(F)c(C(=O)N[C@@H]3CCCOC3)c2OC(C)C)n2ccnc(N)c12 [Compound 44, 3-((S)-1-(8-amino-1-methylimidazo[1,5-a]pyrazin-3-yl)ethyl)-5-chloro-6-fluoro-2-isopropoxy-N-((R)-tetrahydro-2H-pyran-3-yl)benzamide] | 0.74 nM | 20000 nM | 30 µM | 5000 nM
Cc1nc([C@@H](C)c2cc(Cl)c(F)c(C(=O)N[C@H]3CCCOC3)c2OC(C)C)n2ccnc(N)c12 [Compound 45, 3-((S)-1-(8-amino-1-methylimidazol[1,5-a]pyrazin-3-yl)ethyl)-5-chloro-6-fluoro-2-isopropoxy-N-((S)-tetrahydro-2H-pyran-3-yl)benzamide] | 1.1 nM | 16000 nM | 32 µM | 2800 nM
Cc1nc([C@@H](C)c2cc(Cl)c(F)c(C(=O)N[C@H]3CCCC[C@@H]3O)c2OC(C)C)n2ccnc(N)c12 [Compound 46, 3((S)-1-(8-amino-1-methylimidazo[1,5-a]pyrazin-3-yl)ethyl)-5-chloro-6-fluoro-N-((1S,2S)-2-hydroxycyclohexyl)-2-isopropoxybenzamide] | 0.94 nM | 9700 nM | 39 µM | 2100 nM
Cc1nc([C@@H](C)c2cc(Cl)c(F)c(C(=O)N[C@H]3CCCC[C@H]3O)c2OC(C)C)n2ccnc(N)c12 [Compound 47, 3-((S)-1-(8-amino-1-methylimidazo[1,5-a]pyrazin-3-yl)ethyl)-5-chloro-6-fluoro-N-((1S,2R)-2-hydroxycyclohexyl)-2-isopropoxybenzamide] | 2.5 nM | 27000 nM | 26 µM | 5800 nM
Cc1nc([C@@H](C)c2cc(Cl)c(F)c(C(=O)NCC3CCCOC3)c2OC(C)C)n2ccnc(N)c12 (stereo partly drawn) [Compound 50, 3-((S)-1-(8-amino-1-methylimidazo[1,5-a]pyrazin-3-yl)ethyl)-5-chloro-6-fluoro-2-isopropoxy-N-((tetrahydro-2H-pyran-3-yl)methyl)benzamide] | 1.2 nM | 15000 nM | 20 µM | 6100 nM
Cc1nc([C@@H](C)c2cc(Cl)c(F)c(C(=O)NCC3CCOCC3)c2OC(C)C)n2ccnc(N)c12 [Compound 51, (S)-3-(1-(8-amino-1-methylimidazo[1,5-a]pyrazin-3-yl)ethyl)-5-chloro-6-fluoro-2-isopropoxy-N-((tetrahydro-2H-pyran-4-yl)methyl)benzamide] | 0.97 nM | 27000 nM | 6.4 µM | 4500 nM
Cc1nc([C@@H](C)c2cc(Cl)c(F)c(C(=O)N3CC4CCC(C3)O4)c2OC(C)C)n2ccnc(N)c12 [Compound 52, (3-((S)-1-(8-amino-1-methylimidazo[1,5-a]pyrazin-3-yl)ethyl)-5-chloro-6-fluoro-2-isopropoxyphenyl)(8-oxa-3-azabicyclo[3.2.1]octan-3-yl)methanone] | 1.4 nM | 10000 nM | 40 µM | 2500 nM
Cc1nc([C@@H](C)c2cc(Cl)c(F)c(C(=O)N[C@@H]3CC[C@@H](O)C3)c2OC(C)C)n2ccnc(N)c12 [Compound 53, 3-((S)-1-(8-amino-1-methylimidazo[1,5-a]pyrazin-3-yl)ethyl)-5-chloro-6-fluoro-N-((1R,3R)-3-hydroxycyclopentyl)-2-isopropoxybenzamide] | 0.68 nM | 14000 nM | 11 µM | 2400 nM
Cc1nc([C@@H](C)c2cc(Cl)c(F)c(C(=O)NCC3(O)COC3)c2OC(C)C)n2ccnc(N)c12 [Compound 55, (S)-3-(1-(8-amino-1-methylimidazo[1,5-a]pyrazin-3-yl)ethyl)-5-chloro-6-fluoro-N-((3-hydroxyoxetan-3-yl)methyl)-2-isopropoxybenzamide] | 1.8 nM | 13000 nM | 11 µM | 2200 nM
Cc1nc([C@@H](C)c2cc(Cl)c(F)c(C(=O)NC3(CN4CCN(CC5CC5)CC4)CC3)c2OC(C)C)n2ccnc(N)c12 [Compound 56, (S)-3-(1-(8-amino-1-methylimidazo[1,5-a]pyrazin-3-yl)ethyl)-5-chloro-N-(1-((4-(cyclopropylmethyl)piperazin-1-yl)methyl)cyclopropyl)-6-fluoro-2-isopropoxybenzamide] | 1.9 nM | 28000 nM | 44 µM | 4500 nM
Cc1nc([C@@H](C)c2cc(Cl)c(F)c(C(=O)NC[C@H](C)O)c2OC(C)C)n2ccnc(N)c12 [Compound 57, 3-((S)-1-(8-amino-1-methylimidazo[1,5-a]pyrazin-3-yl)ethyl)-5-chloro-6-fluoro-N-((S)-2-hydroxypropyl)-2-isopropoxybenzamide] | 1.1 nM | 18000 nM | 12 µM | 4900 nM
Cc1nc([C@@H](C)c2cc(Cl)c(F)c(C(=O)N[C@@H]3CCC[C@H]3O)c2OC(C)C)n2ccnc(N)c12 [Compound 58, 3-((S)-1-(8-amino-1-methylimidazo[1,5-a]pyrazin-3-yl)ethyl)-5-chloro-6-fluoro-N-((1R,2R)-2-hydroxycyclopentyl)-2-isopropoxybenzamide] | 2.2 nM | 14000 nM | 16 µM | 2800 nM
Cc1nc([C@@H](C)c2cc(Cl)c(F)c(C(=O)N[C@@H](C)c3ccnc(C(F)(F)F)c3)c2OC(C)C)n2ccnc(N)c12 [Compound 59A, 3-((S)-1-(8-amino-1-methylimidazo[1,5-a]pyrazin-3-yl)ethyl)-5-chloro-6-fluoro-2-isopropoxy-N-((S)-1-(2-(trifluoromethyl)pyridin-4-yl)ethyl)benzamide] | 2.1 nM | 8300 nM | 14 µM | 1200 nM
